Data: patent publication US20200024278A1, “COMPOSITION COMPRISING ANTIBIOTIC COMPOUND AND AN HETEROCYCLIC COMPOUND AND THEIR USE IN PREVENTING OR TREATING BACTERIAL INFECTIONS” (MUTABILIS, priority 2016, published 2020)
Read-outs that look alike come from different tables or passages of the source.

Legend:
Assay in all cases: MIC, broth microdilution (CLSI), substance alone or ATB combined with compound at 4 or 8 μg/mL
[1] = tested on: ECL P99; type: cell-based, E. cloacae; settings: Enterobacter cloacae, ECL P99
How it was run: (§1)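 CLSI broth microdilution in cation-adjusted Mueller-Hinton broth, 5·10^5 CFU/mL log-phase inoculum, 16-20 h at 35 °C in ambient air. Fosfomycin assays supplemented with 25 μg/ml glucose-6-phosphate.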

[2] = tested on: ABA UFR155; type: cell-based, A. baumannii
Procedure: (§2) Compounds of the present invention were assessed against genotyped bacterial strains alone or in combination with an antibacterial. In the assays, MICs of said compounds or combination of antibiotics with fixed concentrations of said compounds (4 or 8 μg/mL) were determined by the broth microdilution method according to the Clinical Laboratory Standards Institute (CLSI-M7-A7). Briefly, compounds alone according to the invention were prepared in DMSO and spotted (2 μL each) on sterile polystyrene plates (Corning, 3788). Combinations of compounds and antibiotics dilutions were prepared in DMSO and spotted (1 μL each) on sterile polystyrene plates (Corning, 3788). Log phase bacterial suspensions were adjusted to a final density of 5·10^5 CFU/mL in cation-adjusted Mueller-Hinton broth (ca-MHB; Becton-Dickinson and Company) and added to each well (98 μL). Assays including Fosfomycin were supplemented with 25 μg/ml of Glucose-6-phosphate. Microplates were incubated for 16-20 h at 35° C. in ambient air. The MIC of the compounds was defined as the lowest concentration of said compounds that prevented bacterial growth as read by visual inspection. The MIC of ATB at each compound concentration was defined as the lowest concentration of ATB that prevented bacterial growth as read by visual inspection.

[3] = tested on: ABA UFR156; type: cell-based, A. baumannii
Procedure: as §2

[4] = tested on: ABA UFR152; type: cell-based, A. baumannii
Procedure: as §2

[5] = tested on: ABA UFR151; type: cell-based, A. baumannii
Procedure: as §2

[6] = tested on: ABA UFR160; type: cell-based, A. baumannii; settings: with Example 6 @8 μg/ml
Procedure: as §2

[7] = tested on: ABA UFR153; type: cell-based, A. baumannii
Procedure: as §2

[8] = tested on: ABA UFR157; type: cell-based, A. baumannii
Procedure: as §2

[9] = tested on: ABA 19606; type: cell-based, A. baumannii
Procedure: as §2

[10] = tested on: ABA UFR154; type: cell-based, A. baumannii
Procedure: as §2

[11] = tested on: ABA UFR158; type: cell-based, A. baumannii; settings: with Example 6 @8 μg/ml
Procedure: as §2

[12] = tested on: PAE UFR90; type: cell-based, P. aeruginosa; settings: Pseudomonas aeruginosa, PAE UFR90
How it was run: as §1

[13] = tested on: PAE 105250; type: cell-based, P. aeruginosa; settings: Pseudomonas aeruginosa, PAE 105250
How it was run: as §1

[14] = tested on: PAE UFR48; type: cell-based, P. aeruginosa; settings: Pseudomonas aeruginosa, PAE UFR48
How it was run: as §1

[15] = tested on: KPN 6299; type: cell-based, K. pneumoniae; settings: Klebsiella pneumoniae
How it was run: as §1

[16] = tested on: KPN UFR68; type: cell-based, K. pneumoniae; settings: Klebsiella pneumoniae, substance alone
How it was run: as §1

[17] = tested on: SAU 29213; type: cell-based, S. aureus; settings: Staphylococcus aureus
How it was run: as §1

[18] = tested on: SPN 49619; type: cell-based, S. pneumoniae; settings: Streptococcus pneumoniae, SPN 49619
How it was run: as §1

[19] = tested on: ECO UFR39; type: cell-based, E. coli; settings: Escherichia coli, ECO UFR39
How it was run: as §1

[20] = tested on: ECO 190317; type: cell-based, E. coli; settings: Escherichia coli, ECO 190317
How it was run: as §1

[21] = antibiotic alone, read-out: MIC ATB alone
[22] = Acinetobacter baumannii, antibiotic alone, read-out: MIC ATB alone

C[C@@H](O)[C@H]1C(=O)N2C(C(=O)O)=C(S[C@@H]3CN[C@H](C(=O)N(C)C)C3)[C@H](C)[C@H]12 [MEM, Meropenem]
MIC [1, 21]: 0.063 µg/mL | MIC ([1]; substance alone, read-out: MIC): 0.063 µg/mL | MIC [2, 22]: 32 µg/mL | MIC ATB combined with Example 1 @8 μg/ml ([2]; with Example 1 @8 μg/ml): 16 µg/mL | MIC ATB combined with Example 3 @8 μg/ml ([2]; with Example 3 @8 μg/ml): 8 µg/mL | MIC ATB combined with Example 6 @8 μg/ml ([2]; with Example 6 @8 μg/ml): 16 µg/mL | MIC ATB combined with Example 9 @4 μg/ml ([2]; with Example 9 @4 μg/ml): 16 µg/mL | MIC ATB combined with Example 10 @8 μg/ml ([2]; with Example 10 @8 μg/ml): 8 µg/mL | MIC ATB combined with Example 11 @8 μg/ml ([2]; with Example 11 @8 μg/ml): 16 µg/mL | MIC ATB combined with Example 12 @8 μg/ml ([2]; with Example 12 @8 μg/ml): 16 µg/mL | MIC ATB combined with Example 15 @4 μg/ml ([2]; with Example 15 @4 μg/ml): 64 µg/mL | MIC [3, 22]: 64 µg/mL | MIC ATB combined with Example 1 @8 μg/ml ([3]; with Example 1 @8 μg/ml): 64 µg/mL | MIC ATB combined with Example 3 @8 μg/ml ([3]; with Example 3 @8 μg/ml): 8 µg/mL | MIC ATB combined with Example 6 @8 μg/ml ([3]; with Example 6 @8 μg/ml): 16 µg/mL | MIC ATB combined with Example 9 @4 μg/ml ([3]; with Example 9 @4 μg/ml): 64 µg/mL | MIC ATB combined with Example 10 @8 μg/ml ([3]; with Example 10 @8 μg/ml): 8 µg/mL | MIC ATB combined with Example 11 @8 μg/ml ([3]; with Example 11 @8 μg/ml): 64 µg/mL | MIC ATB combined with Example 12 @8 μg/ml ([3]; with Example 12 @8 μg/ml): 32 µg/mL | MIC ATB combined with Example 15 @4 μg/ml ([3]; with Example 15 @4 μg/ml): 64 µg/mL | MIC [4, 22]: 2 µg/mL | MIC ATB combined with Example 1 @8 μg/ml ([4]; with Example 1 @8 μg/ml): 4 µg/mL | MIC ATB combined with Example 3 @8 μg/ml ([4]; with Example 3 @8 μg/ml): 1 µg/mL | MIC ATB combined with Example 6 @8 μg/ml ([4]; with Example 6 @8 μg/ml): 2 µg/mL | MIC ATB combined with Example 9 @4 μg/ml ([4]; with Example 9 @4 μg/ml): 1 µg/mL | MIC ATB combined with Example 10 @8 μg/ml ([4]; with Example 10 @8 μg/ml): 1 µg/mL | MIC ATB combined with Example 11 @8 μg/ml ([4]; with Example 11 @8 μg/ml): 1 µg/mL | MIC ATB combined with Example 12 @8 μg/ml ([4]; with Example 12 @8 μg/ml): 1 µg/mL | MIC ATB combined with Example 15 @4 μg/ml ([4]; with Example 15 @4 μg/ml): 1 µg/mL | MIC [5, 22]: 0.5 µg/mL | MIC ATB combined with Example 1 @8 μg/ml ([5]; with Example 1 @8 μg/ml): <=0.25 μg/mL | MIC ATB combined with Example 3 @8 μg/ml ([5]; with Example 3 @8 μg/ml): <=0.25 μg/mL | MIC ATB combined with Example 6 @8 μg/ml ([5]; with Example 6 @8 μg/ml): <=0.25 μg/mL | MIC ATB combined with Example 9 @4 μg/ml ([5]; with Example 9 @4 μg/ml): <=0.25 μg/mL | MIC ATB combined with Example 10 @8 μg/ml ([5]; with Example 10 @8 μg/ml): <=0.25 μg/mL | MIC ATB combined with Example 11 @8 μg/ml ([5]; with Example 11 @8 μg/ml): 0.5 µg/mL | MIC ATB combined with Example 12 @8 μg/ml ([5]; with Example 12 @8 μg/ml): <=0.25 μg/mL | MIC ATB combined with Example 15 @4 μg/ml ([5]; with Example 15 @4 μg/ml): 0.5 µg/mL | MIC ATB combined with Example 6 @8 μg/ml [6]: <0.25 µg/mL | MIC [7, 22]: 1 µg/mL | MIC ATB combined with Example 1 @8 μg/ml ([7]; with Example 1 @8 μg/ml): 1 µg/mL | MIC ATB combined with Example 3 @8 μg/ml ([7]; with Example 3 @8 μg/ml): <=0.25 μg/mL | MIC ATB combined with Example 6 @8 μg/ml ([7]; with Example 6 @8 μg/ml): <0.25 µg/mL | MIC ATB combined with Example 9 @4 μg/ml ([7]; with Example 9 @4 μg/ml): <=0.25 μg/mL | MIC ATB combined with Example 10 @8 μg/ml ([7]; with Example 10 @8 μg/ml): <=0.25 μg/mL | MIC ATB combined with Example 11 @8 μg/ml ([7]; with Example 11 @8 μg/ml): 1 µg/mL | MIC ATB combined with Example 12 @8 μg/ml ([7]; with Example 12 @8 μg/ml): <=0.25 μg/mL | MIC ATB combined with Example 15 @4 μg/ml ([7]; with Example 15 @4 μg/ml): <=0.25 μg/mL | MIC [8, 22]: 32 µg/mL | MIC ATB combined with Example 1 @8 μg/ml ([8]; with Example 1 @8 μg/ml): 1 µg/mL | MIC ATB combined with Example 3 @8 μg/ml ([8]; with Example 3 @8 μg/ml): <=0.25 μg/mL | MIC ATB combined with Example 6 @8 μg/ml ([8]; with Example 6 @8 μg/ml): <=0.25 μg/mL | MIC ATB combined with Example 9 @4 μg/ml ([8]; with Example 9 @4 μg/ml): 1 µg/mL | MIC ATB combined with Example 10 @8 μg/ml ([8]; with Example 10 @8 μg/ml): 0.5 µg/mL | MIC ATB combined with Example 11 @8 μg/ml ([8]; with Example 11 @8 μg/ml): 0.5 µg/mL | MIC ATB combined with Example 12 @8 μg/ml ([8]; with Example 12 @8 μg/ml): <=0.25 μg/mL | MIC ATB combined with Example 15 @4 μg/ml ([8]; with Example 15 @4 μg/ml): 0.5 µg/mL | MIC [9, 22]: 1 µg/mL | MIC ATB combined with Example 1 @8 μg/ml ([9]; with Example 1 @8 μg/ml): 1 µg/mL | MIC ATB combined with Example 3 @8 μg/ml ([9]; with Example 3 @8 μg/ml): <=0.25 μg/mL | MIC ATB combined with Example 6 @8 μg/ml ([9]; with Example 6 @8 μg/ml): <=0.25 μg/mL | MIC ATB combined with Example 9 @4 μg/ml ([9]; with Example 9 @4 μg/ml): 2 µg/mL | MIC ATB combined with Example 10 @8 μg/ml ([9]; with Example 10 @8 μg/ml): <=0.25 μg/mL | MIC ATB combined with Example 11 @8 μg/ml ([9]; with Example 11 @8 μg/ml): 0.5 µg/mL | MIC ATB combined with Example 12 @8 μg/ml ([9]; with Example 12 @8 μg/ml): <=0.25 μg/mL | MIC ATB combined with Example 15 @4 μg/ml ([9]; with Example 15 @4 μg/ml): 0.5 µg/mL | MIC [10, 22]: 1 µg/mL | MIC ATB combined with Example 1 @8 μg/ml ([10]; with Example 1 @8 μg/ml): 0.5 µg/mL | MIC ATB combined with Example 3 @8 μg/ml ([10]; with Example 3 @8 μg/ml): <=0.25 μg/mL | MIC ATB combined with Example 6 @8 μg/ml ([10]; with Example 6 @8 μg/ml): 0.5 µg/mL | MIC ATB combined with Example 9 @4 μg/ml ([10]; with Example 9 @4 μg/ml): 0.5 µg/mL | MIC ATB combined with Example 10 @8 μg/ml ([10]; with Example 10 @8 μg/ml): <=0.25 μg/mL | MIC ATB combined with Example 11 @8 μg/ml ([10]; with Example 11 @8 μg/ml): 1 µg/mL | MIC ATB combined with Example 12 @8 μg/ml ([10]; with Example 12 @8 μg/ml): <=0.25 μg/mL | MIC ATB combined with Example 15 @4 μg/ml ([10]; with Example 15 @4 μg/ml): 0.5 µg/mL | MIC ATB combined with Example 6 @8 μg/ml [11]: <0.25 µg/mL | MIC [12, 21]: 2 µg/mL | MIC ([12]; substance alone, read-out: MIC): 2 µg/mL | MIC [13, 21]: 4 µg/mL | MIC ([13]; substance alone, read-out: MIC): 4 µg/mL | MIC [14, 21]: 4 µg/mL | MIC ([14]; substance alone, read-out: MIC): 4 µg/mL | MIC [15, 21]: 1 µg/mL | MIC ([15]; substance alone, read-out: MIC): 1 µg/mL | MIC [16]: 32 µg/mL | MIC ([17]; MSSA): 0.125 µg/mL | MIC ([17]; antibiotic alone, SAU 29213, read-out: MIC ATB alone): 0.125 µg/mL | MIC [18, 21]: 0.063 µg/mL | MIC ([18]; substance alone, read-out: MIC): 0.063 µg/mL | MIC [19, 21]: 64 µg/mL | MIC ([19]; substance alone, read-out: MIC): 64 µg/mL | MIC [20, 21]: 0.031 µg/mL | MIC ([20]; substance alone, read-out: MIC): 0.031 µg/mL
